Square brackets hold non-standard residues; d marks the D form. Ends that are not written are not given here. * marks the point of attachment. Azp = azidopentanoic acid, [N-]=[N+]=NCCCCC(=O)*; Cit = NC(=O)NCCC[C@H](N)C(=O)O

One data set relates to T cells. Kind of data set: In vitro T cell recognition of modified E7 and Reps1 peptide antigen fragments. In kind it is cell-based. The conditions noted are these: E7 (RAHYNIVTF) and Reps1 (AQLANDVVL) fragments modified at N- or C-terminus; FIGS. 28A and B. From the text:
To study the impact of the solubilizing block and extensions on peptide antigen recognition by T cells in vitro, two model antigens, E7 ([…]) and Reps1 ([…]), modified at the N-terminal and/or C-terminal positions were produced by solid-phase peptide synthesis (Tables 25 and 26), and then screened in vitro for T cell recognition (FIG. 28).

Data set [1] deals with antigen specific CD4 T cells expressing FOXP3. Description: Proportion of T cells expressing Tbet or Foxp3; Treg induction by tolerance vaccines with inhibitors and immunostimulants. In kind it is cell-based.
The next data set concerns OT-II cells. Kind of data set: In vitro induction of regulatory T cells by tolerance vaccine formulations in co-culture of CD11c+ APCs and OT-II cells, flow cytometry. It is filed as cell-based. To be noted: 500 nM peptide antigen conjugate, three days. On the technique in general: In flow cytometry, cells or beads pass a laser one at a time.
The format of data set [2] is physicochemical. To be noted: pH 7.4.
Data set [3] can be described thus: pH-responsiveness of carboxylic acid amphiphiles by turbidity (OD at 490 nm). In kind it is physicochemical. The conditions noted are these: 0.1 mM in 1×PBS at pH 7.4, 7.0 or 6.5.
[4] abbreviates: Torin-1 combined with TLR-7/8a 2BXy, peptide antigen conjugate 500 nM.

As for “341: "modification of the C-terminus of peptide antigen fragments (e.g., Compounds 341 and 362) is more well tolerated" (RAHYNIVTFSV[Cit][Azidolysine]-NH2) [Compound 341]”, the “potency for T cell recognition” value in the data set with T cells is on record as “more well tolerated”. Same read-out and setting: the value for “343: "modification of the N-terminus of peptide antigen fragments (e.g., Compounds, 343 and 364) negatively impacts potency" (Azp-V[Cit]RAHYNIVTFS-NH2; SMILES CC[C@H](C)[C@H](NC(=O)[C@H](CC(N)=O)NC(=O)[C@H](Cc1ccc(O)cc1)NC(=O)[C@H](Cc1c[nH]cn1)NC(=O)[C@H](C)NC(=O)[C@H](CCCNC(=N)N)NC(=O)[C@H](CCCNC(N)=O)NC(=O)[C@@H](NC(=O)CCCCN=[N+]=[N-])C(C)C)C(=O)N[C@H](C(=O)N[C@H](C(=O)N[C@@H](Cc1ccccc1)C(=O)N[C@@H](CO)C(N)=O)[C@@H](C)O)C(C)C) [Compound 343]” was “negatively impacts potency”.

With “364: "modification of the N-terminus of peptide antigen fragments (e.g., Compounds, 343 and 364) negatively impacts potency" (Azp-V[Cit]AQLANDVVL-NH2; SMILES CC(C)C[C@H](NC(=O)[C@@H](NC(=O)[C@@H](NC(=O)[C@H](CC(=O)O)NC(=O)[C@H](CC(N)=O)NC(=O)[C@H](C)NC(=O)[C@H](CC(C)C)NC(=O)[C@H](CCC(N)=O)NC(=O)[C@H](C)NC(=O)[C@H](CCCNC(N)=O)NC(=O)[C@@H](NC(=O)CCCCN=[N+]=[N-])C(C)C)C(C)C)C(C)C)C(N)=O) [Compound 364]”, in the data set on T cells, the “potency for T cell recognition” value is given as “negatively impacts potency”. On to `CCC(=O)N1CCN(c2ccc(-n3c(=O)ccc4cnc5ccc(-c6cnc7ccccc7c6)cc5c43)cc2C(F)(F)F)CC1` [Torin-1, Torin 1], for which the “Magnitude of Tregs induced by tolerance vaccines” value in data set [1] (Torin-1 combined with TLR-7/8a 2BXy, versus other immunostimulants) is recorded as “highest magnitude Treg responses”. Moreover, in data set [1] (setting [4]), the “Magnitude of Treg responses, fold higher than Torin-1 alone” value was found to be 2 fold and the “Magnitude of Treg responses, fold higher than the vaccine without Torin-1” value was 8 fold. For the same molecule, in data set [1] (compared with SR1555, rapamycin and ITE, peptide antigen conjugate 500 nM), the “Proportion of antigen specific CD4 T cells expressing FOXP3” value is reported as “higher proportion of antigen specific CD4 T cells expressing FOXP3”. Also, in the data set with OT-II cells, the “proportion of Tregs (Treg/Tbet) relative to formulations with rapamycin” value was 2-4 fold. Further, the “number and proportion of Tregs induced” value in the data set with OT-II cells (vaccines with inhibitor vs without inhibitors, FIGS. 25 and 26) is “significantly higher”. Turning to “KKKKKKK-SGSGSGSGSGSGSGSGSGSGSGSG-(Lys(N3-DBCO))-Ahx-(F′)5 [Compound 91]”, the “Size (diameter, nm)” value in data set [2] was 477 nm. In the case of “{Succinic acid}4K2K{Lys(N3-DBCO)}-Ahx-2B3W2 [Compound 274]”, the “pH-responsiveness: aggregation / particle size stability by turbidity (OD at 490 nm)” value in data set [3] is given as “stable particle sizes down to at least pH 7.0”.

Values taken from US20250127887A1 (priority 2021, published 2025).
